From PMC9230797, “Integration of a Physiologically Based Pharmacokinetic and Pharmacodynamic Model for Tegoprazan and Its Metabolite: Application for Predicting Food Effect and Intragastric pH Alterations” (Pharmaceutics, 2022)
Values joined by “and” are separate entries in the source; they are usually repeats but may differ in a detail not shown here. Equal values may be shown once.

Legend:
[1] = target: T1, CYP2C19 (Homo sapiens, UniProt P33261); assay: Intrinsic clearance using recombinant CYPs: CYP2C19; format: in vitro ADME
T1 construct: purchased Corning Life Sciences (Woburn, MA, USA)
T1 sequence (P33261 whole entry): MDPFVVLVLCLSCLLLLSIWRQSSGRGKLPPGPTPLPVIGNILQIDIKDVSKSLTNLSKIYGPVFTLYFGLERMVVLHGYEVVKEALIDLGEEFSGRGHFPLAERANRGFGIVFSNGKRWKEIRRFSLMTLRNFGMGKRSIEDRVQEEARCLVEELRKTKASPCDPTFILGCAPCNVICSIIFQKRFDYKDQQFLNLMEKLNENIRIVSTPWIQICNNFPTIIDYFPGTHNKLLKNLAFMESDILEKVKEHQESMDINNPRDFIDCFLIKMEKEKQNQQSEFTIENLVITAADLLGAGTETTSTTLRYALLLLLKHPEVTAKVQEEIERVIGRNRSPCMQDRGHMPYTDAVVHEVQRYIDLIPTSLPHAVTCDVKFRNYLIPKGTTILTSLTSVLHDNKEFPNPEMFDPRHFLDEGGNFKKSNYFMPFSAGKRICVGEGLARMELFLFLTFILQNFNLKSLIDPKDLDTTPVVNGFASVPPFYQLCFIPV
Experimental: The elimination profiles of tegoprazan and M1 were assessed using rCYPs. All the assay procedures were performed according to the manufacturer’s instructions. Master mix (1.399 mL), containing the NADPH-generating system, 3.3 mM of glucose 6-phosphate, PBS buffer, deionized water, and each rCYP (25 pmol/μL of CYP2C8, 2C19, and 2E1 and 50 pmol/μL of CYP3A4, 2C9, and 2D6), was added to a microtube and pre-incubated at 37 °C for 5 min. Next, 1 μM tegoprazan and M1 were added and incubated at 37 °C for 0, 5, 10, 20, 30, 45, and 60 min. A total of 100 μL of the sample, incubated for predefined duration, was transferred to a fresh e-tube. Next, 200 μL of acetonitrile containing tegoprazan-d6 (0.5 μM) was added, vortexed for 5 min, and centrifuged at 16,200× g and 4 °C for 10 min. The concentrations of the remaining tegoprazan and M1 were determined by LC–MS/MS. All experiments were performed in duplicate. CLint,rCYP levels were assessed using the results of the disappearance test. […] The CLint resulting from rCYPs was calculated using Equation (3):(3) CLint,rCYP(μL/min/pmol CYP)=0.693/t1/2×1400/concentration of CYP
Caco-2 and rCYP samples were quantified using LC-MS/MS (UPLC® I-class coupled with TQ-MS (Waters, Milford, MA, USA). The mobile phase comprised (a) 0.1% formic acid and (b) acetonitrile containing 0.1% formic acid. Gradient elution at a flow rate of 0.3 mL/min was applied. Tegoprazan, M1, and the internal standard (tegoprazan-d6) were optimized in electrospray ionization positive mode. Acetonitrile with 0.1 μM of tegoprazan-d6 was added to the collected Caco-2 or rCYP samples. Then, processed samples were centrifuged at 13,000× g for 20 min. After centrifugation, 100 μL of supernatant was transferred to an LC-MS vial and analyzed using LC-MS/MS. […] The stability of tegoprazan was evaluated, and it satisfied the acceptance criteria (coefficient of variances was within 15%) under variable conditions including reinjection, processed sample stability (PSS), and short-term stability for the stock and sample.

[2] = PBPK model prediction of plasma PK (SimCYP simulator); parameters: species or system human
From the text: The tegoprazan and M1 PBPK models were developed using SimCYP® simulator, version 20 (Certara, Princeton, NJ, USA). Compound libraries were incorporated into an in vitro dataset, including the microsomal clearance of tegoprazan and M1. Observed PK parameters were obtained from the aforementioned clinical studies (Table 1 and Table 2).
The absorption of tegoprazan was applied to the advanced dissolution, absorption, and metabolism (ADAM) model, and the diffusion layer model (DLM) built into SimCYP® was applied to the considered formulation and pH-dependent solubility of tegoprazan. The permeability of tegoprazan was determined by a Caco-2 permeability assay and optimized by parameter estimation. Caco-2 permeability was optimized such that the predicted concentration–time profiles were fitted to clinical study data. The metabolite was generated by the metabolism of the parent drug; therefore, absorption was not considered.
The tissue distribution in the PBPK model was predicted by the distribution model (e.g., Rodger and Rowland method, Poulin and Theil method) and the tissue:plasma partition coefficient (Kp) scalar for specific organ or global values. Predicted systemic distribution was expressed as the volume of distribution in a steady state (Vss). The Vd values of the clinical study were applied to the initial model of tegoprazan, and parameter estimation was used to determine the optimized Kp scalar fitted to the observed data. The Rodger and Rowland method (method 2) was applied to consider the weak base property and distribution of the neutral and ionic forms. The minimal PBPK model was applied to the M1 distribution module to reduce the complexity. The volume of a single adjusting compartment (Vsac), non-physiological compartment, input rate to SAC (kin), and elimination rate from SAC (kout) were estimated using the parameter estimation module within SimCYP®.
The elimination profiles of tegoprazan and M1 were obtained from in vitro, in vivo, and in silico predictions. Optimized in-house intrinsic clearance for CYPs (CLint,rCYPs), and human liver microsomal and cytosolic (HLM and HLC) clearance were applied to the elimination module of the tegoprazan model. Observed or estimated renal and biliary clearance were applied to the tegoprazan and M1 models. Whole-organ metabolic clearance, using the optimized value for the in vitro assay results, was applied to the M1 model.
The virtual dosing regimen was set to a single oral dose of 100 mg tegoprazan, to match that of the observed data. The simulation conditions were set for 100 virtual subjects who participated in 10 virtual clinical studies (1000 volunteers). The age range was 20 to 40 years, and the male-to-female ratio was 1:1. The predicted and observed PK parameters were compared to evaluate the model prediction results. […] If the predicted vs. observed ratio and its 95% CI were within the 30% range (0.7–1.3), the model was considered to fit well.
Postprandial PK profiles were predicted using an established model. Concentration–time profiles were obtained following a single oral dose (50 mg) of tegoprazan in the fasting state or 30 min after a high-fat diet. The predicted AUClast, Cmax, and Tmax values were compared with those of a previous clinical study.

[3] = parameters: method as in PMID 32055586; settings: Observed (n = 12); single 100 mg tegoprazan; mean (5th–95th percentile); cited from earlier work
[4] = target: porcine H^+/K^+-ATPase; settings: experimental; read-out: half maximal inhibitory concentration (IC50); cited from earlier work
[5] = system: CYP3A4; parameters: method as in ref 18 = [18]; PMID 34575565; doi:10.3390/pharmaceutics13091489; 18. Yoon D.Y. Lee S. Jang I.-J. Kim M. Lee H. Kim S. Kim B. Song G.S. Rhee S.-J. Prediction of Drug–Drug Interaction Potential of Tegoprazan Using Physiologically Based Pharmacokinetic Modeling and Si; settings: cited from earlier work
[6] = At 30 min after a high-fat meal, single 50 mg
[7] = single 100 mg tegoprazan, (95% confidence interval)

CLint, CYP2C19 ([1]; 1 μM, experimental (initial model value)): 0.61 µL/min/pmol and 0.614 µL/min/pmol
half-life at 1 μM ([1]; human, recombinant CYP2C19, rCYP2C19): 1.05 h
Slope (disappearance) ([1]; rCYP2C19, 1 μM): -0.011
increase of predicted Cmax at Day 7 compared with Day 1 ([2]; 100 mg once daily): approximately 1.84%
AUC0–24 h Ratio (Predicted/Observed) [2, 6]: 0.88 (0.43–1.32)
Cmax Ratio (Predicted/Observed) [2, 6]: 0.96 (0.32–1.59)
AUC0–24 h Ratio (Predicted/Observed) ([2]; Fast, single 50 mg): 0.89 (0.45–1.33)
Cmax Ratio (Predicted/Observed) ([2]; Fast, single 50 mg): 0.85 (0.62–1.09)
decrease of predicted mean Cmax after a high-fat diet vs fasted state ([2]; single 50 mg): 31.3%
AUC0–24 h Ratio (Predicted/Observed) [2, 7]: 0.90 (0.85–0.96)
CL Ratio (Predicted/Observed) [2, 7]: 1.25 (1.17–1.34)
Cmax Ratio (Predicted/Observed) [2, 7]: 0.88 (0.80–1.00)
SMILES: Cc1nc2cc(C(=O)N(C)C)cc(O[C@H]3CCOc4cc(F)cc(F)c43)c2[nH]1 [tegoprazan]
AUC0–24 h [3]: 5611 (3783–7489) ng × h/mL
CL [3]: 17.8 (13.1–24.4) L/h
Cmax [3]: 1425 (908–2184) ng/mL
IC50 [4]: 530 nM
predicted systemic exposure change ([5]; co-administered with the maximum recommended dose of clarithromycin or ketoconazole vs without CYP3A4 modulator): increased by approximately three-fold
predicted decrease of systemic exposure ([5]; with the CYP3A4 inducer rifampicin): up to 30%
